According to US20100143449A1, “ANALGESIC COMPOSITION OF TOPICALLY APPLIED NONSTEROIDAL ANTIINFLAMMATORY DRUGS AND OPIOIDS” (priority 2007, published 2010):
Entries after “also recorded” stand apart in the source; their conditions may differ.

Tested on: Male Crl:CD-1 (ICR) BR mice
Experiment: Radiant heat tail-flick assay after topical drug application to the tail
Type: in vivo
Details: for analgesia in % of mice: alone or together, 2 min; for topical analgesic effect (in words) / time of maximal analgesic effect after topical application / duration of analgesia: single drug; for topical analgesic effect (in words) / ED 50 value, propylene glycol alone / ED 50 value, propylene glycol and lauric acid / time of maximal analgesic effect after topical application: topical; for ED 50 value, propylene glycol alone / ED 50 value, propylene glycol and lauric acid: tail immersed 2 min, tested immediately afterward; for ED 50 value, propylene glycol alone: vehicle propylene glycol alone; for ED 50 value, propylene glycol and lauric acid: vehicle propylene glycol and lauric acid (10:1); for duration of analgesia: FIG. 6: S-ibuprofen 4.8 mmol, diclofenac 3.5 mmol, 2 min exposure
Experimental: All in vivo studies were carried out in accordance with the Declaration of Helsinki and with the Guide for Care and Use of Laboratory Animals, as adopted and promulgated by the Estonian Põllumajandusministeerium. Male Crl:CD-1® (ICR) BR mice (20-25 g) were purchased from Charles River Laboratories (Germany) and were housed in a 12:12-h light-dark cycle temperature-controlled room with food and water freely available. Drugs were obtained from Sigma (St. Louis, Mo., USA). […] Briefly, the distal portion of the tail (2-3 cm) was immersed in a propylene glycol/dH2O (10:1 ratio) alone or propylene glycol and lauric acid combination (10:1) solution containing the indicated drugs for the stated time, usually 2 min.). Analgesia was defined quantitatively as tail-flick latency for an individual animal that was twice its baseline latency or greater using tail flick apparatus (Ugo Basile, Italy). […] ED50 values were determined with GraphPad Software.

[1] = FIG. 9A: methadone 0.7 mmol, diclofenac 0.9 mmol
[2] = FIG. 10A: methadone 0.7 mmol, S-ibuprofen 1.2 mmol
[3] = FIG. 7A: morphine 0.15 mmol, diclofenac 0.9 mmol
[4] = FIG. 11B: hydrocodone 0.6 mmol, S-ibuprofen 1.2 mmol

Row | Structure (SMILES) | dose response shift to left of ED50 on addition of lauric acid to propylene glycol | analgesia in % of mice [1] | analgesia in % of mice [2] | topical analgesic effect (in words) | ED 50 value, propylene glycol alone | ED 50 value, propylene glycol and lauric acid | analgesia in % of mice [3] | time of maximal analgesic effect after topical application | duration of analgesia | analgesia in % of mice [4]
1 | CCC(=O)C(CC(C)N(C)C)(c1ccccc1)c1ccccc1 (stereo not shown) [Methadone, methadone] | 6.7 fold | 30% | 25% | dose dependent (FIG. 4A) and naloxone sensitive | 6.7 mmol | 1.0 mmol |  |  |  | 
2 | CCN(CC)CC(=O)Nc1c(C)cccc1C [Lidocaine, lidocaine] |  |  |  | no differences in ED50; also recorded: significant and long acting analgesic effects | 2.2 mmol |  |  |  |  | 
3 | O=C(O)Cc1ccccc1Nc1c(Cl)cccc1Cl [Diclofenac, diclofenac] |  | 30% |  | dose dependent analgesia | 3.3 mmol | 1.1 mmol | 30% | 2 min | 90 min | 
4 | COc1ccc2c3c1O[C@H]1C(=O)CC[C@H]4[C@@H](C2)N(C)CC[C@]314 [Hydrocodone, hydrocodone] |  |  |  | most potent analgesic activity; also recorded: dose dependent response | 1.6 mmol | 1.2 mmol |  |  |  | 20%
5 | CC(C)Cc1ccc([C@H](C)C(=O)O)cc1 [S-ibuprofen] |  |  | 30% | dose dependent analgesia | 9.3 mmol | 2.1 mmol |  | 2 min | 90 min | 30%
6 | CN1CC[C@]23c4c5ccc(O)c4O[C@H]2[C@@H](O)C=C[C@H]3[C@H]1C5 [Morphine, morphine] |  |  |  |  | 7.6 mmol |  | 20% |  |  | 
